Assay results as given in US20230271959A1, “HETEROCYCLIC COMPOUND AS BCL-2 INHIBITOR” (Beijing Innocare Pharma Tech Co., Ltd., priority 2020, published 2023).

What was measured:
[1] = target: T1, human recombinant Bcl-XL protein (Homo sapiens, UniProt Q07817); test: Fluorescence polarization test for inhibition of BCL-XL binding to FITC-BIM; details: 10 nM BCL-XL, 10 nM FITC-BIM, read-out: FP BCL-XL IC50
T1 construct: purchased Beijing Yiqiao Shenzhou Biotechnology Co., Ltd. 10455-H0SE
Outline: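 Human recombinant Bcl-XL (10 nM diluted stock) preincubated with compound 15 min at RT in PBS pH 7.4, 1 mM DTT, then FITC-BIM peptide (10 nM diluted stock) added for 30 min in dark. FP read at ex 480/em 535 nm; no-protein wells = 100% inhibition; IC50 from 8-point 4-fold dilution curve fit.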

[2] = tested on: RS4;11 cells (acute lymphoblastic leukemia cells); test: RS4;11 cell proliferation, CellTilter-Glo luminescence cell viability assay; assay type: cell-based; details: Homo sapiens, RS4-11; CTG readout after 48 hours
Outline: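 RS4;11 cells plated overnight were exposed for 48 h at 37 °C, 5% CO2 to an 8-point, 4-fold compound dilution series; the vehicle control contained 0.2% DMSO. Viability was read by CellTiter-Glo luminescence. Percent inhibition was referenced to no-cell and DMSO controls, and IC50 came from a four-parameter sigmoidal fit.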

[3] = target: T2, human recombinant Bcl-2 protein (Homo sapiens, UniProt P10415); test: Fluorescence polarization test for inhibition of BCL-2 binding to FITC-BIM; details: 5 nM BCL-2, 5 nM FITC-BIM, read-out: FP BCL-2 IC50
T2 construct: purchased Beijing Yigiao Shenzhou Biotechnology Co., Ltd. 10195-HOSE
Outline: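 FP competition: compound preincubated 15 min with recombinant human Bcl-2 (diluted to 5 nM), then FITC-BIM (diluted to 5 nM) added for 30 min at room temperature in PBS pH 7.4 with 1 mM DTT. Polarization read at 480/535 nm; IC50 from 8-point 4-fold series fitted by four-parameter equation.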

[4] = tested on: patients with relapsed or refractory lymphoid malignancies; details: cited from earlier work
[5] = tested on: chronic lymphocytic leukemia (CLL) patients; details: clinical; cited from earlier work
[6] = tested on: relapsed/refractory CLL, MCL, MM; details: clinical; cited from earlier work

T2 sequence (P10415 whole entry): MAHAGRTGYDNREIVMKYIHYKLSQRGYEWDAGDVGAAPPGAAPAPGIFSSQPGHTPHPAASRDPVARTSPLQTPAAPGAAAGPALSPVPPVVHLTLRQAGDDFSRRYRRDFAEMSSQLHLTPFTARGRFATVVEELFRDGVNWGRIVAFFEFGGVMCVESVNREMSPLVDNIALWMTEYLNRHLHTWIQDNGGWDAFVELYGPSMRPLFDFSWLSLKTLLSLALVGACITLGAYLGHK
T1 sequence (Q07817 whole entry): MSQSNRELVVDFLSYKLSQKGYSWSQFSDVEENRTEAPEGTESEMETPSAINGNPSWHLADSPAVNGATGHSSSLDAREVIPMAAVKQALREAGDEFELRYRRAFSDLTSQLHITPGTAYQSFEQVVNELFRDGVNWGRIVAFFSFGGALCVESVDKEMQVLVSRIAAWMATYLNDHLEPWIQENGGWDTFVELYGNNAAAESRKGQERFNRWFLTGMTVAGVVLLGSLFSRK

Row | Structure (SMILES) | IC50 [1] [nM] | IC50 [2] [nM] | IC50 [3] [nM] | further results
1 | C[C@H]1CN(c2ccc(C(=O)NS(=O)(=O)c3cc(F)c(NC[C@@H]4COCCO4)c([N+](=O)[O-])c3)c(Oc3cnc4[nH]ccc4c3)c2)CCN1CC1=C(c2ccc(Cl)cc2)CC(C)(C)CC1 [Example 56, N-((4-((((R)-1,4-dioxan-2-yl)methyl)amino)-3-fluoro-5-nitrophenyl)sulfonyl)-2-((1H-pyrrolo[2,3-b]pyridin-5-yl)oxy)-4-((S)-4-((4′-chloro-5,5-dimethyl-3,4,5,6-tetrahydro-[1,1′-biphenyl]-2-yl)methyl)-3-methylpiperazin-1-yl) benzamide] | > 1000 | 224 | 82 | –
2 | CC1(C)CCC(CN2CCN(c3ccc(C(=O)NS(=O)(=O)c4ccc(NCC5CCOCC5)c([N+](=O)[O-])c4)c(Oc4cnc5[nH]ccc5c4)c3)[C@@H]3CCCC[C@H]32)=C(c2ccc(Cl)cc2)C1 [Example 57] | > 1000 | > 1000 | > 500 | –
3 | C[C@@H]1CN(c2ccc(C(=O)NS(=O)(=O)c3ccc(NCC4CCOCC4)c([N+](=O)[O-])c3)c(Oc3cnc4[nH]ccc4c3)c2)[C@H](C)CN1CC1=C(c2ccc(Cl)cc2)CC(C)(C)CC1 [Example 58, 2-((1H-Pyrrolo[2,3-b]pyridin-5-yl)oxy)-4-((2R,5R)-4-((4′-chloro-5,5-dimethyl-3,4,5,6-tetrahydro-[1,1′-biphenyl]-2-yl)methyl)-2,5-dimethylpiperazin-1-yl)-N-((3-nitro-4-(((tetrahydro-2H-pyran-4-yl)methyl)amino)phenyl)sulfonyl)benzamide] | > 1000 | 142 | 29.9 | –
4 | C[C@@H]1CN(c2ccc(C(=O)NS(=O)(=O)c3ccc(NC[C@H]4COCCO4)c([N+](=O)[O-])c3)c(Oc3cnc4[nH]ccc4c3)c2)C[C@@H](C)N1CC1=C(c2ccc(Cl)cc2)CC(C)(C)CC1 [Example 59, N-((4-((((S)-1,4-Dioxan-2-yl)menthyl)amino)-3-nitrophenyl)sulfonyl)-2-((1H-pyrrolo[2,3-b]pyridin-5-yl)oxy)-4-((3R,5R)-4-((4′-chloro-5,5-dimethyl-3,4,5,6-tetrahydro-[1,1′-biphenyl]-2-yl)methyl)-3,5-dimethylpiperazin-1-yl)benzamide] | > 1000 | 193 | 73.2 | –
5 | CC1(C)CCC(c2ccc(Cl)cc2)=C(CN2CCN(c3ccc(C(=O)NS(=O)(=O)c4ccc(N[C@H](CCN5CCOCC5)CSc5ccccc5)c(S(=O)(=O)C(F)(F)F)c4)cc3)CC2)C1 [Navitoclax] | – | – | – | response ([4]; Phase I dose escalation): 50%; targeted toxicity ([4]; thrombocytopenia and severe anemia): very strong targeted toxicity related to BCL-XL
6 | COC1=CC(c2cc3ccccc3[nH]2)=N/C1=C\c1[nH]c(C)cc1C [Obatoclax] | – | – | – | neurotoxicity [5]: strong neurotoxicity
7 | CC1(C)CCC(CN2CCN(c3ccc(C(=O)NS(=O)(=O)c4ccc(NCC5CCOCC5)c([N+](=O)[O-])c4)c(Oc4cnc5[nH]ccc5c4)c3)CC2)=C(c2ccc(Cl)cc2)C1 [Venetoclax, reference compound] | – | 5.5 | – | toxic side effects [6]: toxic side effects such as leukopenia and thrombocytopenia, anemia, diarrhea, dizziness, fatigue, susceptibility to infection
